Test results published in US20070014739A1, “Compositions and methods for controlling biofilms and bacterial infections” (priority 2005, published 2007).

What was measured:
[1] = tested on: E. coli clinical strain UT189; assay: Inhibition of biofilm formation, crystal violet, 96 well plates; format: cell-based; conditions: Escherichia coli, compared to the controls, read-out: inhibited biofilm formation of the UT189 strain
Experimental: (§1) Biofilm inhibition experiments were conducted using an assay adapted from the reported protocol described in Pratt and Kolter, 1998, Molecular Microbiology, 30: 285-293; Li et al., 2001, J. Bacteriol., 183: 897-908. E. coli clinical strain UT189 was grown in LB in 96 well plates at room temperature for one or two days without shaking. E. coli laboratory strain JM109 was grown in LB plus 0.2% glucose in 96 well plates at room temperature for one day without shaking. To quantify the biofilm mass, the suspension culture was poured out and the biofilm was washed three times with water. The biofilm was stained with 0.1% crystal violet for 20 minutes. The plates were then washed three times with water. OD reading at 540 nm was measured to quantify the biofilm mass at the bottom of the wells. Then 95% ethanol was added to dissolve the dye at the bottom and on the wall and the OD reading at 540 nm was measured to quantify the total biofilm mass. To study the overall effect of the compounds (3.6 mg/mL in 100% ethanol as stock solution), it was added with the inoculation and a time course of biofilm mass was measured. Appropriate amounts of 100% ethanol were added to each sample to eliminate the effect of solvent. Each condition had 3-4 replicates on each plate and was performed over multiple days.

[2] = tested on: E. coli laboratory strain JM109; assay: as above; format: cell-based; conditions: Escherichia coli, JM 109, compared to the controls, read-out: inhibited biofilm formation of the JM109 strain
Experimental: as §1

[3] = tested on: P. aeruginosa strain PAO1; assay: Rotating disk reactor (RDR) biofilm test with and without tobramycin, culturable bacteria; format: cell-based, Pseudomonas aeruginosa; conditions: average of three days; for CFU, Test Compound: no tobramycin; for CFU, Tobramycin and Test Compound: then tobramycin 100 μg/ml 2 h
Experimental: Biofilm formation of P. aeruginosa was evaluated using a standardized biofilm method with a rotating disk reactor (RDR). This method provides a model resembling the formation of biofilms in cystic fibrosis patients. The rotating disk reactor consists of a one-liter glass beaker fitted with a drain spout. The bottom of the vessel contains a magnetically driven rotor with six 1.27 cm diameter coupons constructed from polystyrene. The rotor consists of a star-head magnetic stir bar upon which a disk was affixed to hold the coupons. The vessel with the stir bar was placed on a stir plate and rotated to provide fluid shear. A nutrient solution (AB Trace Medium with 0.3 mM glucose, see Table 3 below for composition) was added through a stopper in the top of the reactor at a flow rate of 5 ml/min. The reactor volume was approximately 180 ml and varied slightly between reactors depending on the placement of the drain spout and the rotational speed of the rotor. At a volume of 180 ml, the residence time of the reactors was 36 minutes. The reactors were operated at room temperature (c.a. 26° C.).
For each test, two RDRs were operated in parallel with one receiving test compound and the other serving as an untreated control. The RDRs were sterilized by autoclave, then filled with sterile medium and inoculated with P. aeruginosa strain PAO1. The reactors were then incubated at room temperature in batch mode (no medium flow) for a period of 24 hours, after which the flow was initiated for a further 24 hour incubation. Test compounds were dissolved in 10 ml ethanol to achieve a concentration of 1.8 mg/ml. After the 48 hours of biofilm development described above, the 10 ml of ethanol containing the test compounds were added to the reactor to achieve a final concentration of approximately 50, 100, or 200 μg/ml. Control reactors received 10 ml of ethanol. The reactors were then incubated for an additional 24 hours in batch (no flow) mode. After this incubation period, the six coupons were removed from each reactor and placed in 12-well polystyrene tissue culture plates with wells containing either 2 ml of a 100 μg/ml tobramycin solution or 2 ml of phosphate-buffered saline (PBS). These plates were incubated at room temperature for two hours. The coupons were then rinsed by three transfers to plates containing 2 ml of fresh PBS. For each two RDR reactors run in parallel, four sets of three coupons were obtained: one set with no test compound treatment and no tobramycin treatment, one set with no test compound treatment and tobramycin treatment, one set treated with a test compound treatment and no tobramycin treatment, and one set treated with a test compound treatment and tobramycin. After rinsing, one coupon of each set of three was stained with a LIVE/DEAD® BacLight™ Bacterial Viability Kit (Molecular Probes, Eugene Oreg.) and imaged using epifluorescent microscopy. The remaining two coupons were placed in 10 ml of PBS and sonicated for five minutes to remove and disperse biofilm cells. The resulting bacterial suspensions were then serially diluted in PBS and plated on tryptic soy agar plates for enumeration of culturable bacteria. The plates were incubated for 24 hours at 37° C. before colony forming units (CFU) were determined.
The results are averages from experiments performed on three separate days for each test compound. The values reported are as loglo CFU.

S. sobrinus 6715 = assay: Biofilm growth inhibition in 1 mL polycarbonate tubes; format: cell-based; conditions: Streptococcus sobrinus, 40 μg/mL

C[C@H]1[C@H](C)CC[C@]2(C(=O)O)CC[C@]3(C)C(=CC[C@@H]4[C@@]5(C)C[C@@H](O)[C@H](O)[C@@](C)(CO)[C@@H]5CC[C@]43C)[C@H]12 [Asiatic acid] showed an inhibition at 4 µg/mL ([1]; 4 ug/ml) of roughly 10%, an inhibition at 8 µg/mL ([1]; 8 ug/ml) of roughly 15% and an inhibition at 16 µg/mL ([1]; 16 ug/ml) of roughly 50%. It also gave an inhibition at 32 µg/mL ([1]; 32 ug/ml) of roughly 90%, an inhibition at 5 µg/mL ([2]; 5 ug/ml) of roughly 70% and an inhibition at 10 µg/mL ([2]; 10 ug/ml) of roughly 80%. The “CFU, Test Compound” value ([3]; test compound 50 μg/ml 24 h) was 7.7 loglo CFU, the “CFU, Tobramycin and Test Compound” value ([3]; test compound 50 μg/ml 24 h) was 5.3 loglo CFU and the “CFU, Test Compound” value ([3]; test compound 100 μg/ml 24 h) was 7.7 loglo CFU. For the same molecule, the “CFU, Tobramycin and Test Compound” value ([3]; test compound 100 μg/ml 24 h) was 5.5 loglo CFU, the “CFU, Test Compound” value ([3]; test compound 200 μg/ml 24 h) was 7.5 loglo CFU and the “CFU, Tobramycin and Test Compound” value ([3]; test compound 200 μg/ml 24 h) was 5.2 loglo CFU. It also gave an inhibition at 40 µg/mL (S. sobrinus 6715) greater than 75%.
